Results published in patent US9415046B2, “Compositions and methods for inhibiting inflammation from and rejection of biomaterials and other methods” (YALE UNIVERSITY, priority 2009, dated 2016).
Entries after “also recorded” stand apart in the source; their conditions may differ.

Experiments:
Assay type in all cases: in vivo
wild-type mice [1] = experiment: APAP (acetaminophen) induced liver inflammation, liver injury and mortality; conditions: by down regulation of pro-inflammatory cytokines
Method: APAP (Sigma, Mo.) solution was made fresh for each experiment in PBS at 20 mg/ml and heated in a water bath to 55° C. to dissolve. APAP was dosed at 500 mg/kg and injected I.P after 15 hrs of starvation. Animals were euthanized by ketamine/xylazine injection at 12 hours for collection of serum, isolation of liver lymphocytes or collection of liver tissue for histology, or they were observed every four hours for 72 hours until they reached criteria for euthanasia (lack of response to stimuli or lack of righting reflex). FIGS. 3A and B show less hemorrhage and cell death in the livers of mice lacking TLR9 compared to wild-type and FIGS. 3C and D show a similar affect of TLR7. […] The data was generated by a single ip injection of APAP at a dose of 500 mg/kg. Data in Figures A to D was generated 12 hours after APAP and E and F is over a 3 day period.
Data was generated 12 hours after injection of APAP. […] The data was generated over 72 hours (3 days). […] Data was generated from 23 hours after injection of APAP.

wild-type mice [2] = experiment: Foreign body reaction to subcutaneously implanted 6 mm silicone disc; conditions: silicone implant, one month, aspirin 60 mg/ml in drinking water, P<0.05 compared to no ASA, FIG. 7
Method: Two models of the foreign body reaction were tested. In the first model, injection of 150 micron polystyrene beads into the abdominal cavity of C57BL/6 was followed by analysis of cellular infiltrate 24 hours later. In the second model, implantation of a 6 mm disc of silicone subcutaneously was followed by analysis of the foreign body reaction about one month later. The above two models were performed on mice on normal drinking water or with aspirin (60 mg/ml). […] The experiment evidenced that the cellular infiltrate at 24 hours was comprised principally of immune cells (neutrophils and macrophages). […] A 6 mm disc of silicone was implanted subcutaneously in experimental mice (see above), followed by analysis of the foreign body reaction around one month later. The mice were placed on normal drinking water or water with aspirin at a concentration of 60 mg/ml. […] Wild-type mice were implanted with a silicone capsule on the side of the muscle and on the side of the skin. The mice were either given regular drinking water or drinking water containing 60 mg/ml aspirin. After one month, the mice were then analyzed to determine if there was an impact on the foreign body reaction which occurred as a consequence of implanting the silicone capsulate.

C57BL/6 mice = experiment: Foreign body reaction to 150 micron polystyrene beads injected into the abdominal cavity; conditions: 24 hours, FIG. 2
Method: Two models of the foreign body reaction were tested. In the first model, injection of 150 micron polystyrene beads into the abdominal cavity of C57BL/6 was followed by analysis of cellular infiltrate 24 hours later. In the second model, implantation of a 6 mm disc of silicone subcutaneously was followed by analysis of the foreign body reaction about one month later. The above two models were performed on mice on normal drinking water or with aspirin (60 mg/ml). […] The experiment evidenced that the cellular infiltrate at 24 hours was comprised principally of immune cells (neutrophils and macrophages).

CC(=O)Oc1ccccc1C(=O)O [aspirin, acetylsalicylic acid]
effect on acetaminophen-induced liver injury (wild-type mice [1]): protective effect
thickness of the foreign body reaction capsule on the side of the muscle and on the side of the skin (wild-type mice [2]): significant reduction
foreign body reaction to polystyrene beads (number of cells in cellular infiltrate) (C57BL/6 mice; continuous aspirin in drinking water (60 mg/ml)): substantially diminished; also recorded: significantly reduced
composition of the cellular infiltrate (neutrophils and macrophages) (C57BL/6 mice; continuous aspirin): not significantly altered
